In patent US6426065B1 (Clairol Incorporated, priority 2000, dated 2002):
Entries after “also recorded” stand apart in the source; their conditions may differ.

Tests used:
[1] = Permanent wave evaluation of waving lotions on hair tresses (waving efficiency); details: for Percent Waving Efficiency / Tress Length (cm) Lt: amine 0.75M with 13.2 wt. % (0.8M) GMT, pH 7.5, 37° C. for 20 minutes; for Tress Length (cm) Lt: length of permed hair measured in the water, shorter = tighter curl
Description: The pH was adjusted using a 10 wt. % HCl solution. Tresses were rolled onto mandrels and evaluated using the permanent wave evaluation procedure that follows. Procedure for Permanent Wave Evaluation […] 1. A bundle of 16 inch long medium virgin brown hair was secured with beeswax by dipping approximately 2 inches of the root end of the bundled hair into melted wax for 5 seconds. When the wax is cool to the touch, it is shaped into a square and allowed to harden. 2. Hair is broken into smaller bundles, washed with a 10 wt. % sodium lauryl sulfate solution and then rinsed. 3. Hair is sectioned into tresses of 45 hairs and the waxed end is re-waxed to further secure the tress. The wax is allowed to dry, and a piece of tape is wrapped around it to provide a writing surface. […] 4. An 8 cm long, 1.25 cm diameter spiral rod with 25 turns is used. The waxed end of the hair is secured between the 9th and 10th turns using a rubber band. […] 5. A piece of tape, width 2.5 cm, is wrapped sideways around the bottom edge of the hair, covering the bottom 2.5 cm. A 3.4 g alligator clip is used to secure the tape. Using a piece of copper wire as a hook, a 6 oz. weight is hung from the tape at the bottom of the hair. The hair is rolled around the rod, using the weight to provide equal tension during rolling. The weight is removed after rolling, and the bottom tape is secured around the rod with a piece of Tygon tubing. 6. […] The solution completely covers the hair. The test tube is placed in a constant temperature water bath at 37° C. for 20 minutes. 7. The rod is removed and rinsed for 3 minutes under running tap water at approximately 30° C. and a flow rate of approximately 1 liter/minute. The rod is then placed into a new test tube with 10 mL of neutralizer (2 wt. % hydrogen peroxide, 0.05 wt. % polyquat-11, and phosphoric acid to pH 3.1). The rod is removed and rinsed with the 30° C. tap water for 2 minutes. 8. The tress is soaked in a bowl of 30° C. tap water for 5 minutes to allow complete oxidation. The tress is then carefully unrolled from the rod without tension, starting from the bottom and keeping the spiral configuration intact. The tape is cut off the hair using scissors while the hair is still on the rod. […] 10. […] A glass container (10×11.5×4 in) is used in which clear plastic rulers are glued along the front and back walls. A copper wire is secured across the top of the container. The rulers should be lined up to provide a way to accurately measure the hair. A copper wire hook is placed through the tape at the top of the tress and hung on the wire. […] Waving Efficiency After the procedure, the lengths of the tresses were measured in a water bath. The shorter the tress, the tighter the curl and the better the product. The curl is measured from the end of the wax to the end of the curl. [formula] where Li=initial length of tress from wax end to tip Lo=length of tress when wrapped on the rod Lt=length of permed hair from wax end to tip, measured in the water

[2] = pKa and free amine of the alkalizer; type: physicochemical; details: at a pH of about 7.5

| SMILES | Percent Waving Efficiency [1] | Tress Length (cm) Lt [1] | free amine [2] | free amine ([2]; listed as monoethanolamine) | performance as alkalizer in waving lotion (in words) ([1]; low pH waving lotion, in combination with a reducing agent) |
| --- | --- | --- | --- | --- | --- |
| N [Ammonia] | 47.8% | 15.5 ± 1.2 cm | – | – | – |
| NCCO [Monoethanolamine] | 45.4% | 16.1 ± 0.5 cm | one | 1% | – |
| NC(CO)(CO)CO [Tris, tris(hydroxymethyl)amino methane] | – | 15.7 ± 0.9 cm | about 22% | – | effective alkalizer; also recorded: better results than monoethanolamine |
